The assay concerns the target T1, ΔF508-CFTR (Homo sapiens, UniProt P13569, DEL508-508).
T1 construct: expressed in transfected cells; host or cells: NIH3T3 mouse fibroblasts (optical membrane potential assay, whole-cell and single-channel recordings); Fisher rat epithelial (FRT) cells (Ussing chamber)
The assay can be described thus: Assays for detecting and measuring ΔF508-CFTR correction properties (membrane potential optical assay; electrophysiological assays). It counts as cell-based. An excerpt: Assays for Detecting and Measuring ΔF508-CFTR Correction Properties of Compounds
Membrane potential optical methods for assaying ΔF508-CFTR modulation properties of compounds.
The optical membrane potential assay utilized voltage-sensitive FRET sensors described by Gonzalez and Tsien (See Gonzalez, J. E. and R. Y. Tsien (1995) “Voltage sensing by fluorescence resonance energy transfer in single cells” Biophys J 69(4): 1272-80, and Gonzalez, J. E. and R. Y. Tsien (1997) “Improved indicators of cell membrane potential that use fluorescence resonance energy transfer” Chem Biol 4(4): 269-77) in combination with instrumentation for measuring fluorescence changes such as the Voltage/Ion Probe Reader (VIPR) (See, Gonzalez, J. E., K. Oades, et al. (1999) “Cell-based assays and instrumentation for screening ion-channel targets” Drug Discov Today 4(9): 431-439).
These voltage sensitive assays are based on the change in fluorescence resonant energy transfer (FRET) between the membrane-soluble, voltage-sensitive dye, DiSBAC2(3), and a fluorescent phospholipid, CC2-DMPE, which is attached to the outer leaflet of the plasma membrane and acts as a FRET donor. […] The changes in fluorescence emission were monitored using VIPR™ II, which is an integrated liquid handler and fluorescent detector designed to conduct cell-based screens in 96- or 384-well microtiter plates. […]

The structures appear in SMILES notation. pEC50: −log10 of the molar value.

T1 sequence (P13569 with tags, fused parts or gaps DEL508-508): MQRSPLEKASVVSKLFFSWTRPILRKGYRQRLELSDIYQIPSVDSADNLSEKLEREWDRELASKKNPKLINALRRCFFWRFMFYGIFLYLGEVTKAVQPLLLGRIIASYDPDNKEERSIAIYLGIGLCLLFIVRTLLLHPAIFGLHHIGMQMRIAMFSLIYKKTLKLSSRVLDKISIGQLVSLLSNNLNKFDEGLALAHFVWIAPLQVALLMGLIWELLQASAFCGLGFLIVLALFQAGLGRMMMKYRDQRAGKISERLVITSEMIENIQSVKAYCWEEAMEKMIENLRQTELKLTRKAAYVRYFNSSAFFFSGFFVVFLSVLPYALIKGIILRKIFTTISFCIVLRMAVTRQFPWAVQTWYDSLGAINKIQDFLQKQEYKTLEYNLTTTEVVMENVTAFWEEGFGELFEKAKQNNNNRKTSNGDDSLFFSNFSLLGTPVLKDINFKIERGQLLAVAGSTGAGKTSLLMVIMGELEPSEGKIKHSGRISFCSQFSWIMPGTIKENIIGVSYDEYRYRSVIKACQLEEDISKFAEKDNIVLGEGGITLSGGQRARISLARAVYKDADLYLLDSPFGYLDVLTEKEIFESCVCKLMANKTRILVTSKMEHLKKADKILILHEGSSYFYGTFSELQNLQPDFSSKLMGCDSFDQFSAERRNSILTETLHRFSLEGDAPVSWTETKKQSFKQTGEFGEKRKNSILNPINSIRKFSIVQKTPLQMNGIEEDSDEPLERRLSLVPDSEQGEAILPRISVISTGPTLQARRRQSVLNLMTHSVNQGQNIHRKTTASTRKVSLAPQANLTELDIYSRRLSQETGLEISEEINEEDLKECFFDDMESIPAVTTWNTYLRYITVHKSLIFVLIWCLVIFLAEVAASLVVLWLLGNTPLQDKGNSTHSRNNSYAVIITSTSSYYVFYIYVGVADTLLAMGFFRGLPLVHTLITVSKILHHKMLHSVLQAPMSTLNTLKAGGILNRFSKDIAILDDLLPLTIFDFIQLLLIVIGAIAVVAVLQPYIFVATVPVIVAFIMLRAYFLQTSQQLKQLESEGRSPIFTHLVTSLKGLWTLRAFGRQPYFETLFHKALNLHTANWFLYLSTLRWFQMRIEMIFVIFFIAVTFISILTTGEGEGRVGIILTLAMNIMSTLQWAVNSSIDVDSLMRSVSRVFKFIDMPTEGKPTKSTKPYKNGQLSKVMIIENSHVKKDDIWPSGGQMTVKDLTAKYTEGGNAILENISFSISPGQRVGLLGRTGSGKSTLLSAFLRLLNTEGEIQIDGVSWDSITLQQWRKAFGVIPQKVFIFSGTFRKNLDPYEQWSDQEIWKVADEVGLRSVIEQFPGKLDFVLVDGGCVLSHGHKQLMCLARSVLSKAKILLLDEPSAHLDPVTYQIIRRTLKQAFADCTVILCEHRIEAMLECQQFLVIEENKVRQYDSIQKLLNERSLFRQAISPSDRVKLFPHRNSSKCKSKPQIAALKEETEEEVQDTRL

Regarding `CC(C)(CO)c1cc2cc(NC(=O)C3(c4ccc5c(c4)OC(F)(F)O5)CC3)c(F)cc2n1C[C@@H](O)CO` [Compound 1, (R)-1-(2,2-difluorobenzo[d][1,3]dioxol-5-yl)-N-(1-(2,3-dihydroxypropyl)-6-fluoro-2-(1-hydroxy-2-methylpropan-2-yl)-1H-indol-5-yl)cyclopropanecarboxamide], the pEC50 (NIH3T3 mouse fibroblasts stably expressing ΔF508-CFTR, read-out: BinnedEC50) was no less than 5.70. The BinnedMaxEfficacy entry (PercentActivity bins) is given as “+++ (100.0 < +++)”.

Source of the values: patent US9012496B2, “Pharmaceutical compositions of (R)-1-(2,2-difluorobenzo[D][1,3]dioxol-5-yl)-N-(1-(2,3-dihydroxypropyl)-6-fluoro-2-(1-hydroxy-2-methylpropan-2-yl)-1H-indol-5-yl)cyclopropanecarboxamide and administration thereof” (Vertex Pharmaceuticals Incorported, priority 2012, dated 2015).
